Results from ChEMBL document CHEMBL3627653, “Synthesis and biological evaluation of spiro[cyclopropane-1,3'-indolin]-2'-ones as potential anticancer agents” (Bioorg Med Chem Lett, 2015).

Key:
Assay type in all cases: functional, cell-based
A549 = experiment: Anticancer activity against human A549 cells assessed as reduction in cell viability incubated for 48 hrs by MTT assay; details: A549, 48 h
HT-29 = experiment: Anticancer activity against human HT-29 cells assessed as reduction in cell viability incubated for 48 hrs by MTT assay; details: HT-29, 48 h
MCF7 = experiment: Anticancer activity against human MCF7 cells assessed as reduction in cell viability incubated for 48 hrs by MTT assay; details: MCF7, 48 h
HeLa = experiment: Anticancer activity against human HeLa cells assessed as reduction in cell viability incubated for 48 hrs by MTT assay
DU-145 = experiment: Anticancer activity against human DU145 cells assessed as reduction in cell viability incubated for 48 hrs by MTT assay; details: DU-145, 48 h

Compound `CCOC(=O)[C@H]1[C@H](C(O)c2ccc([N+](=O)[O-])cc2)C12C(=O)Nc1ccc(Br)cc12` (stereo partly drawn) has an IC50 (A549) of 21.1 µM, an IC50 (HT-29) of 23.4 µM and an IC50 (MCF7) of over 100 µM. For the same compound, the IC50 (HeLa) was 28.8 µM and the IC50 (DU-145) was 27.8 µM.

With `CCOC(=O)[C@@H]1[C@@H](C(=O)c2ccccc2)C12C(=O)Nc1ccccc12` (stereo partly drawn) the IC50 (A549) was 4.16 µM, the IC50 (HT-29) was 2.75 µM and the IC50 (MCF7) was 2.95 µM. The IC50 (HeLa) was 7.24 µM and the IC50 (DU-145) was 1.69 µM.

In the case of `CCOC(=O)[C@H]1C(C(=O)c2ccc(OC)cc2)C12C(=O)Nc1ccc(Cl)cc12` (stereo partly drawn), the IC50 (A549) is reported as 6.42 µM, the IC50 (HT-29) is reported as 9.54 µM and the IC50 (MCF7) is reported as 9.33 µM. The IC50 (HeLa) was 9.12 µM and the IC50 (DU-145) was 5.01 µM.

`CCOC(=O)[C@H]1[C@H](C(=O)OCC)C12C(=O)Nc1ccc(Cl)cc12` (relative stereo) was tested, and the IC50 (A549) was 29 µM, the IC50 (HT-29) was 22.9 µM and the IC50 (MCF7) was 24 µM. The IC50 (HeLa) was 25.1 µM and the IC50 (DU-145) was 19.9 µM.

Work on `CCOC(=O)[C@H]1[C@H](C(=O)OCC)C12C(=O)Nc1ccc(Br)cc12` (relative stereo) yielded an IC50 (A549) of over 100 µM, an IC50 (HT-29) of 30.9 µM and an IC50 (MCF7) of over 100 µM. The IC50 (HeLa) was 62.8 µM and the IC50 (DU-145) was 50.7 µM.

`CCOC(=O)[C@H]1[C@H](C(=O)OCC)C12C(=O)Nc1ccc(F)cc12` (relative stereo) was tested, and the IC50 (A549) was 78.2 µM, the IC50 (HT-29) was 36.6 µM and the IC50 (MCF7) was 36.8 µM. The IC50 (HeLa) was 84.2 µM and the IC50 (DU-145) was 24.3 µM.

Compound `CCOC(=O)[C@H]1[C@H](C(=O)OCC)C12C(=O)Nc1ccccc12` (relative stereo) has an IC50 (A549) of over 100 µM, an IC50 (HT-29) of 18.9 µM and an IC50 (MCF7) of 57.5 µM. The IC50 (HeLa) was 61.3 µM and the IC50 (DU-145) was 18.6 µM.

For `CCOC(=O)[C@H]1[C@H](C(=O)OCC)C12C(=O)Nc1ccc([N+](=O)[O-])cc12` (relative stereo), the IC50 (A549) was over 100 µM, the IC50 (HT-29) was 50.1 µM and the IC50 (MCF7) was 71.6 µM. For the same compound, the IC50 (HeLa) was 32.9 µM and the IC50 (DU-145) was 38 µM.

Compound `CCOC(=O)[C@H]1[C@H](C(=O)OCC)C12C(=O)N(C)c1ccccc12` (relative stereo) has an IC50 (A549) of 74.2 µM, an IC50 (HT-29) of 26.9 µM and an IC50 (MCF7) of 32.1 µM. For the same compound, the IC50 (HeLa) was 32.2 µM and the IC50 (DU-145) was 39.8 µM.

Work on `CCOC(=O)[C@H]1[C@H](C(O)c2ccc(OC)cc2)C12C(=O)Nc1ccccc12` (relative stereo) yielded an IC50 (A549) of 27.5 µM, an IC50 (HT-29) of 2.29 µM and an IC50 (MCF7) of 4.78 µM. The IC50 (HeLa) was 5.78 µM and the IC50 (DU-145) was 1.94 µM.

`CCOC(=O)[C@H]1[C@H](C(=O)c2ccc(Cl)cc2)C12C(=O)Nc1ccccc12` (relative stereo) gave an IC50 (A549) of 12.9 µM, an IC50 (HT-29) of 23.7 µM and an IC50 (MCF7) of 18.6 µM. It also gave an IC50 (HeLa) of 19.9 µM and an IC50 (DU-145) of 15.8 µM.

In the case of `CCOC(=O)[C@H]1[C@H](C(=O)c2ccc(OC)cc2)C12C(=O)Nc1ccccc12` (relative stereo), the IC50 (A549) is reported as 9.77 µM, the IC50 (HT-29) is reported as 14.7 µM and the IC50 (MCF7) is reported as 19.1 µM. The IC50 (HeLa) was 26.3 µM and the IC50 (DU-145) was 17.4 µM.

With `CCOC(=O)[C@H]1[C@H](C(=O)c2ccc3ccccc3c2)C12C(=O)Nc1ccccc12` (relative stereo) the IC50 (A549) was 12.6 µM, the IC50 (HT-29) was 18 µM and the IC50 (MCF7) was 31.1 µM. The IC50 (HeLa) was 20 µM and the IC50 (DU-145) was 17.2 µM.

`CCOC(=O)[C@H]1[C@H](C(=O)c2ccc([N+](=O)[O-])cc2)C12C(=O)Nc1ccccc12` (relative stereo) was tested, and the IC50 (A549) was 19.1 µM, the IC50 (HT-29) was 25.1 µM and the IC50 (MCF7) was 22.1 µM. The IC50 (HeLa) was 41.3 µM and the IC50 (DU-145) was 19.8 µM.

With `CCOC(=O)[C@H]1[C@H](C(=O)c2ccc(OC)c([N+](=O)[O-])c2)C12C(=O)Nc1ccccc12` (relative stereo) the IC50 (A549) was 4.79 µM, the IC50 (HT-29) was 7.24 µM and the IC50 (MCF7) was 9.77 µM. For the same compound, the IC50 (HeLa) was 7.76 µM and the IC50 (DU-145) was 6.36 µM.

In the case of `CCOC(=O)[C@H]1[C@H](C(=O)c2cc(OC)c(OC)c(OC)c2)C12C(=O)Nc1ccccc12` (relative stereo), the IC50 (A549) is reported as 17.7 µM, the IC50 (HT-29) is reported as 8.51 µM and the IC50 (MCF7) is reported as 50.1 µM. The IC50 (HeLa) was 32.8 µM and the IC50 (DU-145) was 15.8 µM.

In the case of `CCOC(=O)[C@H]1[C@H](C(=O)c2cc(OC)c(OC)c(OC)c2)C12C(=O)Nc1ccc(Cl)cc12` (relative stereo), the IC50 (A549) is reported as 24.1 µM, the IC50 (HT-29) is reported as 25.1 µM and the IC50 (MCF7) is reported as 37.5 µM. For the same compound, the IC50 (HeLa) was 39.8 µM and the IC50 (DU-145) was 21.9 µM.

Compound `CCOC(=O)[C@H]1[C@H](C(=O)c2ccc(Cl)cc2)C12C(=O)Nc1ccc(Cl)cc12` (relative stereo) has an IC50 (A549) of 32.4 µM, an IC50 (HT-29) of 79.4 µM and an IC50 (MCF7) of 30.8 µM. It also gave an IC50 (HeLa) of over 100 µM and an IC50 (DU-145) of over 100 µM.

`CCOC(=O)[C@H]1[C@H](C(=O)c2ccc(C)cc2)C12C(=O)Nc1ccc(Cl)cc12` (relative stereo) showed an IC50 (A549) of over 100 µM, an IC50 (HT-29) of over 100 µM and an IC50 (MCF7) of 90.2 µM. It also gave an IC50 (HeLa) of over 100 µM and an IC50 (DU-145) of over 100 µM.

`CCOC(=O)[C@H]1[C@H](C(=O)c2ccc(OC)c(OC)c2)C12C(=O)Nc1ccc(Cl)cc12` (relative stereo) showed an IC50 (A549) of 7.07 µM, an IC50 (HT-29) of 9.92 µM and an IC50 (MCF7) of 20.3 µM. For the same compound, the IC50 (HeLa) was 13 µM and the IC50 (DU-145) was 8.31 µM.

`CCOC(=O)[C@H]1[C@H](C(=O)c2ccc3ccccc3c2)C12C(=O)Nc1ccc(Cl)cc12` (relative stereo) showed an IC50 (A549) of 6.16 µM, an IC50 (HT-29) of 5.01 µM and an IC50 (MCF7) of 4.89 µM. The IC50 (HeLa) was 7.76 µM and the IC50 (DU-145) was 5.24 µM.

Work on `CCOC(=O)[C@H]1[C@H](C(=O)c2ccc([N+](=O)[O-])cc2)C12C(=O)Nc1ccc(Cl)cc12` (relative stereo) yielded an IC50 (A549) of 3.59 µM, an IC50 (HT-29) of 2.95 µM and an IC50 (MCF7) of 4.26 µM. The IC50 (HeLa) was 10.7 µM and the IC50 (DU-145) was 2.88 µM.

With `CCOC(=O)[C@H]1[C@H](C(=O)c2ccccc2)C12C(=O)N(C)c1ccccc12` (relative stereo) the IC50 (A549) was 7.24 µM, the IC50 (HT-29) was 16.1 µM and the IC50 (MCF7) was 13.2 µM. It also gave an IC50 (HeLa) of 19.5 µM and an IC50 (DU-145) of 7.94 µM.

Work on `CCOC(=O)[C@H]1[C@H](C(=O)c2ccc3ccccc3c2)C12C(=O)N(C)c1ccccc12` (relative stereo) yielded an IC50 (A549) of 98.5 µM, an IC50 (HT-29) of over 100 µM and an IC50 (MCF7) of 75.9 µM. It also gave an IC50 (HeLa) of over 100 µM and an IC50 (DU-145) of over 100 µM.

With `CCOC(=O)[C@H]1[C@H](C(=O)c2ccc(C)cc2)C12C(=O)N(C)c1ccccc12` (relative stereo) the IC50 (A549) was 5.49 µM, the IC50 (HT-29) was 23.9 µM and the IC50 (MCF7) was 24.7 µM. The IC50 (HeLa) was 33.5 µM and the IC50 (DU-145) was 7.24 µM.

`CCOC(=O)[C@H]1[C@H](C(=O)c2ccc([N+](=O)[O-])cc2)C12C(=O)N(C)c1ccccc12` (relative stereo) gave an IC50 (A549) of 26.1 µM, an IC50 (HT-29) of 19.7 µM and an IC50 (MCF7) of 37.1 µM. The IC50 (HeLa) was 51.2 µM and the IC50 (DU-145) was 18.9 µM.

With `CCOC(=O)[C@H]1[C@H](C(=O)c2ccc(Cl)cc2)C12C(=O)N(C)c1ccccc12` (relative stereo) the IC50 (A549) was 6.56 µM, the IC50 (HT-29) was 8.51 µM and the IC50 (MCF7) was 12.6 µM. It also gave an IC50 (HeLa) of 12.6 µM and an IC50 (DU-145) of 6.3 µM.

`CCOC(=O)[C@H]1[C@H](C(=O)c2ccc(OC)cc2)C12C(=O)N(C)c1ccccc12` (relative stereo) was tested, and the IC50 (A549) was 5.88 µM, the IC50 (HT-29) was 13.2 µM and the IC50 (MCF7) was 18.2 µM. The IC50 (HeLa) was 15.4 µM and the IC50 (DU-145) was 15 µM.

`CCOC(=O)[C@H]1[C@H](C(=O)c2ccc(OC)cc2)C12C(=O)Nc1ccc(Br)cc12` (relative stereo) was tested, and the IC50 (A549) was 79.4 µM, the IC50 (HT-29) was 33.7 µM and the IC50 (MCF7) was 41.6 µM. For the same compound, the IC50 (HeLa) was 45.1 µM and the IC50 (DU-145) was 31.7 µM.

For `CCOC(=O)[C@H]1[C@H](C(=O)c2ccc3ccccc3c2)C12C(=O)Nc1ccc(Br)cc12` (relative stereo), the IC50 (A549) was 25 µM, the IC50 (HT-29) was 79.4 µM and the IC50 (MCF7) was 29.3 µM. It also gave an IC50 (HeLa) of over 100 µM and an IC50 (DU-145) of 36.9 µM.

For `CCOC(=O)[C@H]1[C@H](C(=O)c2ccc(Cl)cc2)C12C(=O)Nc1ccc(Br)cc12` (relative stereo), the IC50 (A549) was 15.8 µM, the IC50 (HT-29) was 8.47 µM and the IC50 (MCF7) was 12.2 µM. It also gave an IC50 (HeLa) of 62.1 µM and an IC50 (DU-145) of 8.12 µM.

`CCOC(=O)[C@H]1[C@H](C(=O)c2ccc([N+](=O)[O-])cc2)C12C(=O)Nc1ccc(Br)cc12` (relative stereo) showed an IC50 (A549) of 30.5 µM, an IC50 (HT-29) of 42.6 µM and an IC50 (MCF7) of over 100 µM. It also gave an IC50 (HeLa) of 68.9 µM and an IC50 (DU-145) of 31.6 µM.

For `COc1cccc2c1C(=O)c1c(O)c3c(c(O)c1C2=O)C[C@@](O)(C(=O)CO)C[C@@H]3O[C@H]1C[C@H](N)[C@H](O)[C@H](C)O1` [DOXORUBICIN], the IC50 (HT-29) was 0.93 µM, the IC50 (HeLa) was 1.51 µM and the IC50 (DU-145) was 1.94 µM.
